Data reported in the supplement of paper PMC10307832.

Each cell line was assayed with COc1cc([C@@H]2c3cc4c(cc3[C@@H](O[C@@H]3O[C@@H]5CO[C@@H](C)O[C@H]5[C@H](O)[C@H]3O)[C@H]3COC(=O)[C@H]23)OCO4)cc(OC)c1O [Etoposide] + CCNC(=O)c1noc(-c2cc(C(C)C)c(O)cc2O)c1-c1ccc(CN2CCOCC2)cc1 [Luminespib] (partner 0.01 µM) (assay: relative viability (nuclei count vs DMSO), 5 days (fraction); higher = more cells survive). Details: first compound 0.01 µM.
Method in brief: (§1)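 Relative viability divides the nuclei count in treated wells by that in vehicle wells. Lung cancer cell lines were seeded in 1536-well plates, dosed by pin tool the next day, and fixed and stained after 5 days in one step with final 0.05% Triton X-100, 1% formaldehyde and 1 ug/ml Hoechst. Dosing was a single drug or a fixed anchor-drug dose plus five library-drug doses (not always all listed) in √10 steps, and values are medians of duplicate plates imaged at 4×.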

Cell Line	relative viability
NCI-H2087	0.153
PC-14	0.112
LCLC-103H	0.924
NCI-H596	1.01
NCI-H2228	0.159
EMC-BAC-2	0.895
NCI-H2085	0.34
NCI-H1666	0.949
NCI-H647	0.134
LK-2	0.206
NCI-H2126	0.927
NCI-H2342	0.622
SK-MES-1	0.695
H3255	0.877
COR-L23	0.573
COR-L 105	0.96
ChaGo-K-1	0.467
NCI-H2170	0.714
SW 900	0.185
NCI-H1563	0.502
ABC-1	0.35

Same assay, conditions: first compound 0.03162 µM

Cell Line	relative viability
NCI-H522	0.988
NCI-H1623	0.537
NCI-H838	0.31
NCI-H1650	0.175
NCI-H1993	0.726
NCI-H2087	0.162
PC-14	0.172
LCLC-103H	1.17
NCI-H596	0.883
NCI-H2228	0.141
EMC-BAC-2	0.932
NCI-H2085	0.514
NCI-H1666	0.906
NCI-H647	0.164
LK-2	0.181
NCI-H2126	0.877
NCI-H2342	0.728
SK-MES-1	0.64
H3255	0.829
COR-L23	0.802
COR-L 105	0.765
ChaGo-K-1	0.473
NCI-H2170	0.874
SW 900	0.21
NCI-H1563	0.463
ABC-1	0.648

Same assay, conditions: first compound 0.1 µM

Cell Line	relative viability
NCI-H522	0.866
NCI-H1623	0.347
NCI-H838	0.272
NCI-H1650	0.202
NCI-H1993	0.757
NCI-H2087	0.165
PC-14	0.143
LCLC-103H	0.954
NCI-H596	0.986
NCI-H2228	0.154
EMC-BAC-2	0.651
NCI-H2085	0.451
NCI-H1666	0.77
NCI-H647	0.164
LK-2	0.154
NCI-H2126	0.545
NCI-H2342	0.425
SK-MES-1	0.733
H3255	0.576
COR-L23	0.536
COR-L 105	0.758
ChaGo-K-1	0.38
NCI-H2170	0.273
SW 900	0.168
NCI-H1563	0.479
ABC-1	0.33

Same assay, conditions: first compound 0.3162 µM

Cell Line	relative viability
NCI-H522	0.907
NCI-H1623	0.405
NCI-H838	0.162
NCI-H1650	0.209
NCI-H1993	0.73
NCI-H2087	0.164
PC-14	0.138
LCLC-103H	0.832
NCI-H596	0.771
NCI-H2228	0.117
EMC-BAC-2	0.297
NCI-H2085	0.338
NCI-H1666	0.399
NCI-H647	0.134
LK-2	0.195
NCI-H2126	0.622
NCI-H2342	0.352
SK-MES-1	0.357
H3255	0.703
COR-L23	0.214
COR-L 105	0.625
ChaGo-K-1	0.211
NCI-H2170	0.585
SW 900	0.175
NCI-H1563	0.408
ABC-1	0.351

Same assay, conditions: first compound 1 µM

Cell Line	relative viability
NCI-H522	0.601
NCI-H1623	0.28
NCI-H838	0.194
NCI-H1650	0.211
NCI-H1993	0.48
NCI-H2087	0.155
PC-14	0.151
LCLC-103H	0.541
NCI-H596	0.681
NCI-H2228	0.147
EMC-BAC-2	0.248
NCI-H2085	0.265
NCI-H1666	0.406
NCI-H647	0.0949
LK-2	0.159
NCI-H2126	0.33
NCI-H2342	0.29
SK-MES-1	0.231
H3255	0.379
COR-L23	0.153
COR-L 105	0.776
ChaGo-K-1	0.229
NCI-H2170	0.452
SW 900	0.153
NCI-H1563	0.396
ABC-1	0.29

The cell lines below were run with CC1=C(N=C(N=C1N)[C@H](CC(=O)N)NC[C@@H](C(=O)N)N)C(=O)N[C@@H]([C@H](C2=CN=CN2)OC3C(C(C(C(O3)CO)O)O)OC4C(C(C(C(O4)CO)O)OC(=O)N)O)C(=O)N[C@H](C)[C@H]([C@H](C)C(=O)N[C@@H]([C@@H](C)O)C(=O)NCCC5=NC(=CS5)C6=NC(=CS6)C(=O)NCCC[S+](C)C)O [Bleomycin] + Cc1nc(NC(=O)N2CCC[C@H]2C(N)=O)sc1-c1ccnc(C(C)(C)C(F)(F)F)c1 [Alpelisib] (partner 2 µM) in the same assay as above. Details: first compound 0.01 µM; main component drawn.
Method in brief: as §1

Cell Line	relative viability
NCI-H838	0.674
EBC-1	0.777
NCI-H1703	0.32
NCI-H1993	0.648
NCI-H2087	0.865
PC-14	0.626
LCLC-103H	0.92
NCI-H596	0.377
NCI-H2228	0.905
EMC-BAC-2	0.647
NCI-H2085	0.715
Calu-6	0.63
HCC-366	0.345
NCI-H1666	0.711
NCI-H647	0.575
LK-2	0.579
NCI-H2126	0.758
SK-MES-1	0.731
H3255	0.532
COR-L23	0.516
COR-L 105	0.95
IA-LM	0.514
NCI-H2170	0.775
A549	0.593
HCC-78	0.287
NCI-H1299	0.978
NCI-H1563	0.831
ABC-1	0.883

Same assay, conditions: first compound 0.03162 µM; main component drawn

Cell Line	relative viability
NCI-H838	0.29
EBC-1	0.718
NCI-H1703	0.295
NCI-H1993	0.642
NCI-H2087	0.924
PC-14	0.534
LCLC-103H	0.967
NCI-H596	0.686
NCI-H2228	0.959
EMC-BAC-2	0.643
NCI-H2085	0.778
Calu-6	0.603
HCC-366	0.253
NCI-H1666	0.708
NCI-H647	0.448
LK-2	0.505
NCI-H2126	0.789
SK-MES-1	0.531
H3255	0.69
COR-L23	0.495
COR-L 105	0.949
IA-LM	0.614
NCI-H2170	0.815
A549	0.44
HCC-78	0.266
NCI-H1299	1.03
NCI-H1563	0.707
ABC-1	1.03

Same assay, conditions: first compound 0.1 µM; main component drawn

Cell Line	relative viability
NCI-H838	0.238
EBC-1	0.696
NCI-H1703	0.278
NCI-H1993	0.618
NCI-H2087	0.795
PC-14	0.303
LCLC-103H	1.05
NCI-H596	0.395
NCI-H2228	0.696
EMC-BAC-2	0.653
NCI-H2085	0.672
Calu-6	0.333
HCC-366	0.212
NCI-H1666	0.625
NCI-H647	0.337
LK-2	0.478
NCI-H2126	0.808
SK-MES-1	0.59
H3255	0.508
COR-L23	0.262
COR-L 105	0.794
IA-LM	0.565
NCI-H2170	0.792
A549	0.314
HCC-78	0.285
NCI-H1299	0.923
NCI-H1563	0.678
ABC-1	0.615

Same assay, conditions: first compound 0.3162 µM; main component drawn

Cell Line	relative viability
NCI-H838	0.161
EBC-1	0.501
NCI-H1703	0.173
NCI-H1993	0.536
NCI-H2087	0.196
PC-14	0.0745
LCLC-103H	0.934
NCI-H596	0.259
NCI-H2228	0.341
EMC-BAC-2	0.355
NCI-H2085	0.436
Calu-6	0.181
HCC-366	0.042
NCI-H1666	0.264
NCI-H647	0.109
LK-2	0.282
NCI-H2126	0.6
SK-MES-1	0.315
H3255	0.335
COR-L23	0.0744
COR-L 105	0.413
IA-LM	0.372
NCI-H2170	0.58
A549	0.0966
HCC-78	0.222
NCI-H1299	0.529
NCI-H1563	0.613
ABC-1	0.425

Same assay, conditions: first compound 1 µM; main component drawn

Cell Line	relative viability
NCI-H838	0.212
EBC-1	0.404
NCI-H1703	0.196
NCI-H1993	0.522
NCI-H2087	0.165
PC-14	0.067
LCLC-103H	0.4
NCI-H596	0.269
NCI-H2228	0.376
EMC-BAC-2	0.232
NCI-H2085	0.378
Calu-6	0.177
HCC-366	0.035
NCI-H1666	0.354
NCI-H647	0.0917
LK-2	0.251
NCI-H2126	0.552
SK-MES-1	0.185
H3255	0.305
COR-L23	0.0882
COR-L 105	0.317
IA-LM	0.246
NCI-H2170	0.552
A549	0.0714
HCC-78	0.174
NCI-H1299	0.416
NCI-H1563	0.572
ABC-1	0.298
